{
  "source": "patent US8895769B2",
  "about": "“Silicon-containing carboxylic acid derivative” (Kemphys Ltd., priority 2011, dated 2014)",
  "key": {"gabapentin receptor": {"target": "T1, gabapentin receptor (Rattus norvegicus, UniProt P54290)", "T1 construct": "a gabapentin receptor was prepared from the brains of Wister rats; from tissue; host or cells: Wistar rat brain, prepared by the method of Suman-Chauhan et al. 1993", "T1 sequence (P54290 25-944 limits assumed)": "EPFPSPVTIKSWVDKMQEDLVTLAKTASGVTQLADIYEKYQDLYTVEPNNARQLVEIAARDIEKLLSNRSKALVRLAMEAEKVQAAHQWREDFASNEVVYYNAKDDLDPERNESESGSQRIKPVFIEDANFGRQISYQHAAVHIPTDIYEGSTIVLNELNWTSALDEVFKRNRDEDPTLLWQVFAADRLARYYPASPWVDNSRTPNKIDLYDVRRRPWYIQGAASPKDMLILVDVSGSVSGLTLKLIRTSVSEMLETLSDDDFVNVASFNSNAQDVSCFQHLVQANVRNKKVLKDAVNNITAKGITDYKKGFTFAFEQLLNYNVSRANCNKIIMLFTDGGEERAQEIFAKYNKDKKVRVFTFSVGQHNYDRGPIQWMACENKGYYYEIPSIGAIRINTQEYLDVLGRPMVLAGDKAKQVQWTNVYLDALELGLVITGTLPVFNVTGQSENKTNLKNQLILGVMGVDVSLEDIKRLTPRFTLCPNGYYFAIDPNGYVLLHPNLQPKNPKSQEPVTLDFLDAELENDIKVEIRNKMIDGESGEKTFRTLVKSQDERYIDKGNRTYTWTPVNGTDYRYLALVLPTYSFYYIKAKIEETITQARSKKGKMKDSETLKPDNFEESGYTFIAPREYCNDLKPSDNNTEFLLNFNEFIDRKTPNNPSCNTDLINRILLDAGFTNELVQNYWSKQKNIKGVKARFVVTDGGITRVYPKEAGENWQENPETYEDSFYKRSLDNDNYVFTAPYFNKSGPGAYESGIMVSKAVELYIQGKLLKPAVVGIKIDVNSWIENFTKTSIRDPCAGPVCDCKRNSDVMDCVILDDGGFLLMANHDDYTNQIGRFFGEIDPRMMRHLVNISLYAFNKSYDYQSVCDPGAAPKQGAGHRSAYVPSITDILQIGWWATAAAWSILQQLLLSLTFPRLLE", "T1 sequence (P54290 945-1091 limits assumed)": "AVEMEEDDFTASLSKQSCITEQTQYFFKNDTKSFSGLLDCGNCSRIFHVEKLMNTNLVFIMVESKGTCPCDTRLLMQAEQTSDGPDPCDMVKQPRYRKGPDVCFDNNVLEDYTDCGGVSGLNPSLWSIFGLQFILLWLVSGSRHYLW", "experiment": "Binding to gabapentin receptor (inhibition of [3H]gabapentin binding)", "conditions": "compound 1 μM; 0.02 μM [3H] gabapentin; receptor from brains of Wister rats", "procedure": "According to the method of Suman-Chauhan et al. (Eur. J. Pharmacol, 244 (3), pp. 293-301, 1993), a gabapentin receptor was prepared from the brains of Wister rats. Binding of the following compounds (1 μM) to the gabapentin receptor was investigated on the basis of inhibition of binding of gabapentin in the presence of 0.02 μM [^3H] gabapentin. As a result, the following inhibition ratios were observed. • 4-Amino-3-(trimethylsilyl)butanoic acid: 35% • 4-Amino-3-(t-butyldimethylsilyl)butanoic acid: 13% • 4-Amino-3-(trimethylsilylmethyl)butanoic acid: 28% • 4-Amino-3-(dimethyl-n-octylsilyl)butanoic acid: 32%"}, "rat Chung model": {"test_system": "rat Chung model", "experiment": "Analgesic action test using Chung model", "type": "in vivo", "conditions": "single oral administration, 30 minutes after, physical stimulation, N=6", "procedure": "A rat Chung model was used. 4-Amino-3-(trimethylsilyl)butanoic acid (Compound A), 4-amino-3-(trimethylsilylmethyl)butanoic acid (Compound B), 4-amino-3-[(1-methyl-1-silacyclopentan-1-yl)methyl]butanoic acid (Compound C), 4-(1-methyl-1-silacyclohexan-1-yl)-3-cyanobutanoic acid (Compound D), and pregabalin (positive control, Compound E) were each orally administered once to the rats, and analgesic action was examined 30 minutes thereafter on the basis of pain threshold values obtained with a physical stimulation (total number of groups: 11, N=6). As a result, the pain threshold values (g) of the agent-administered groups and the control group were as follows. • Control (0.5% MC): 5.3±0.4 • Compound A: 7.8±0.5 (60 mg/kg), 6.2±0.4 (20 mg/kg) • Compound B: 7.9±0.4 (60 mg/kg), 5.4±0.2 (20 mg/kg) • Compound C: 8.8±0.3 (60 mg/kg), 5.7±0.6 (20 mg/kg) • Compound D: 7.3±0.5 (60 mg/kg), 4.8±0.2 (20 mg/kg) • Compound E: 8.3±0.2 (30 mg/kg), 6.3±0.3 (10 mg/kg)"}},
  "data": [
    {"smiles": "C[Si]1(C(CN)CC(=O)O)CCCCC1", "note": "(stereo not drawn)", "values": [
      {"measurement": "melting point", "value": "160 to 161.5", "unit": "°C"}
    ]},
    {"smiles": "C[Si]1(CC(CN)CC(=O)O)CCCCC1", "note": "(stereo not drawn)", "values": [
      {"measurement": "melting point", "value": "140.5 to 143", "unit": "°C"}
    ]},
    {"smiles": "CCCCCCCC[Si](C)(C)C(CN)CC(=O)O", "note": "(stereo not drawn) [4-amino-3-(dimethyl-n-octylsilyl)butanoic acid]", "values": [
      {"measurement": "inhibition ratio (inhibition of binding of gabapentin)", "setting": "gabapentin receptor", "value": 32, "unit": "%"}
    ]},
    {"smiles": "CC(C)(C)[Si](C)(C)C(CN)CC(=O)O", "note": "(stereo not drawn) [4-amino-3-(tert-butyldimethylsilyl)butanoic acid]", "values": [
      {"measurement": "inhibition ratio (inhibition of binding of gabapentin)", "setting": "gabapentin receptor", "value": 13, "unit": "%"}
    ]},
    {"smiles": "C[Si](C)(C)C(CN)CC(=O)O", "note": "(stereo not drawn) [Compound A, 4-amino-3-(trimethylsilyl)butanoic acid]", "values": [
      {"measurement": "inhibition ratio (inhibition of binding of gabapentin)", "setting": "gabapentin receptor", "value": 35, "unit": "%"},
      {"measurement": "pain threshold value", "setting": "rat Chung model; 20 mg/kg", "value": "6.2 ± 0.4", "unit": "g"},
      {"measurement": "pain threshold value", "setting": "rat Chung model; 60 mg/kg", "value": "7.8 ± 0.5", "unit": "g"},
      {"measurement": "melting point", "value": "199 to 201", "unit": "°C"}
    ]},
    {"smiles": "C[Si](C)(C)CC(CN)CC(=O)O", "note": "(stereo not drawn) [Compound B, 4-amino-3-(trimethylsilylmethyl)butanoic acid]", "values": [
      {"measurement": "inhibition ratio (inhibition of binding of gabapentin)", "setting": "gabapentin receptor", "value": 28, "unit": "%"},
      {"measurement": "pain threshold value", "setting": "rat Chung model; 20 mg/kg", "value": "5.4 ± 0.2", "unit": "g"},
      {"measurement": "pain threshold value", "setting": "rat Chung model; 60 mg/kg", "value": "7.9 ± 0.4", "unit": "g"}
    ]},
    {"smiles": "C[Si]1(CC(CN)CC(=O)O)CCCC1", "note": "(stereo not drawn) [Compound C, 4-amino-3-[(1-methyl-1-silacyclopentan-1-yl)methyl]butanoic acid]", "values": [
      {"measurement": "pain threshold value", "setting": "rat Chung model; 20 mg/kg", "value": "5.7 ± 0.6", "unit": "g"},
      {"measurement": "pain threshold value", "setting": "rat Chung model; 60 mg/kg", "value": "8.8 ± 0.3", "unit": "g"},
      {"measurement": "melting point", "value": "133 to 135", "unit": "°C"}
    ]},
    {"smiles": "C[Si]1(CC(C#N)CC(=O)O)CCCCC1", "note": "(stereo not drawn) [Compound D, 4-(1-methyl-1-silacyclohexan-1-yl)-3-cyanobutanoic acid]", "values": [
      {"measurement": "pain threshold value", "setting": "rat Chung model; 20 mg/kg", "value": "4.8 ± 0.2", "unit": "g"},
      {"measurement": "pain threshold value", "setting": "rat Chung model; 60 mg/kg", "value": "7.3 ± 0.5", "unit": "g"}
    ]},
    {"smiles": "CC(C)C[C@H](CN)CC(=O)O", "note": "[Compound E, (S)-3-(aminomethyl)-5-methylhexanoic acid, reference compound]", "values": [
      {"measurement": "pain threshold value", "setting": "rat Chung model; 10 mg/kg", "value": "6.3 ± 0.3", "unit": "g"},
      {"measurement": "pain threshold value", "setting": "rat Chung model; 30 mg/kg", "value": "8.3 ± 0.2", "unit": "g"}
    ]}
  ]
}
